Measured values as given in US7312024B2, “Materials and methods to inhibit Hodgkin and Reed Sternberg cell growth” (Amgen Canada Inc., priority 1999, dated 2007).

Tested on: HDLM2 cells
Test: [3H]-thymidine incorporation proliferation of HDLM2 cells after neutralization of IL-13
Assay type: cell-based, human
Details: IL-13 0.5-200 ng/ml
Description: To investigate the effects of IL-13 and IL-5 on the proliferation of H/RS cells, L428, KMH2 and HDLM2 cells were incubated with either (i) medium alone, (ii) medium containing neutralizing antibodies to IL-13 or IL-5, or (ii) isotype matched control antibodies. Proliferation was measured by determining [^3H]-thyridine incorporation at 24, 48, or 72 hours after treatment.
HD-derived L428, KMH2, and HDLM2 cells and LCL control cells (2×10^4/well) were cultured in 96-well flat-bottom plates for 24 hours, 48 hours, or 72 hours in the presence of anti-IL-13, anti-IL-5, or isotype control antibodies at 5, 10, 20, 30, 50, 100 or 150 μg/ml. Cells were treated either with IL-13 (0.5, 1, 5, 10, 50, 100 and 200 ng/ml), or with these same doses of IL-13 combined with 20 μg/ml anti-IL-13 monoclonal antibody. Tritium-labeled thymidine (1 μCi/well) was added to each well and incubation continued for eight hours. Cells were harvested on filters and incorporation of […] into cellular DNA was measured as previously described [Shahinian, et al., Science 261:609-12 (1993)]. The viability of cultured cell lines after treatment with anti-IL-13 neutralizing antibodies was examined by 7-aminoactinomycin D (7-AAD) staining.

IL-13: exogenous IL-13 cytokine added to cells
proliferation with exogenous IL-13 alone versus untreated cells: did not result in an increase in proliferation
